Molecular target: T1, NOD2 (Homo sapiens, UniProt Q9HC29)
T1 construct: host or cells: HEK-293T-derived HEK-Blue NF-kB/SEAP reporter cells
Test: NOD2-HEK-Blue NF-κB reporter cell activation assay (NOD2-expressing HEK-293T cells)
Assay type: cell-based
Conditions: for EC50: calculated, three-parameter dose-response nonlinear regression, read-out: pEC50 (μM), dose-dependent activation of NOD2-expressing HEK-293T cells (converted); for Potency in structure-activity comparison: relative to TT007, FIG. 2B, 2D, 2F, 6E; for NOD2 activation, result in words in the pEC50 column: Table 1; for Activity after N-methylation on Val: TT018 vs. TT019, TT010 vs. TT020, TT011 vs. TT021, FIG. 2C
Excerpt: FIG. 1(A-F). Virtual screening for small molecule NOD2 agonists. A, Docked structure of muramyl dipeptide (MDP) in the leucine-rich repeat (LRR) domain of rabbit NOD2 (pdb 5IRM). […] B, Results of virtual docking approach with reported chemical structures related to MDP. C, Workflow of virtual screening in which a library was generated using carboxylic acids appended to the L-Val-D-Glu dipeptide and then docked to the NOD2 LRR domain. D, Desmuramyl MDP (dMDP) structures resulting from the virtual screen that were synthesized for further screening. Chemicals shown as a pure enantiomer were synthesized as a racemic mixture. E, Activation of NOD2-expressing HEK-293T cells treated for 16 h with 10 µM of the indicated compound using a colorimetric assay. F, Dose-dependent activation of NOD2-expressing HEK-293T cells using the indicated compounds. Numbers in parentheses represent calculated negative log of the half maximal effective concentration (pEC50) values. NOD activation assays were analyzed using a one-way ANOVA with Dunnett's multiple comparisons test compared to the DMSO control. pEC50 values were derived by a three-parameter dose-response nonlinear regression. ****P<0.0001.
FIG. 2(A-G). Structure-activity relationship studies of 3,5-dimethyl-N-arylpyrazole NOD2 agonists. A, Structures of 3,5-dimethyl-N-arylpyrazole structures synthesized for SAR studies. B-F, Dose-dependent activation of NOD2-expressing HEK-293T cells using the indicated compounds grouped by similar structural perturbations. Numbers in parentheses represent calculated pEC50 values. G, Graph of calculated pEC50 values vs. calculated partition coefficient (clogP). Dotted lines show equivalent lipophilic ligand efficiency (LLE) values. Red arrow indicates optimization of the TT007 scaffold to TT030. pEC50 values were derived by a three-parameter dose-response nonlinear regression.
Cell culture. The following cell lines were used and sourced as follows: HEK-Blue NOD2 (InvivoGen, hkb-hnod2), HEK-Blue NOD1 (InvivoGen, hkb-nod1), HEK-Blue Null2 (hkb-null2), and B16-F10 (ATCC CRL-6475). All cell lines were cultured at 37° C. in 5% CO2 in DMEM (ThermoFisher, 11995065) supplemented with 10% fetal bovine serum (FBS), 100 U mL-1 penicillin, and 100 μg mL-1 streptomycin. Cells were maintained at no greater than 70% confluency and subcultured using TrypLE Express. Cell lines were routinely cultured without antibiotics to ensure no bacterial infection and tested for mycoplasma using a Universal Mycoplasma Detection Kit (ATCC 30-1012K). Primary human peripheral mononuclear blood cells (PBMCs) were cultured at 37° C. in 5% CO2 in RPMI 1640 (ThermoFisher, 61870143) supplemented with 10% FBS. All experimental work using human samples was reviewed and approved by the Scripps Research Institutional Review Board (Protocol IRB-21-7816NOD2).
Reporter cell line activation assay. Approximately 24 h before the assay, culture medium for each of the HEK-Blue reporter cell lines was replaced with a 1:1 mixture of DMEM supplemented with 10% FBS and OptiMEM. On the day of the assay, single cell suspensions (150,000 cells/mL) were produced in HEK-Blue detection medium (InvivoGen, hb-det2). Cells were aliquoted at 200 μL per well of a 96-well plate containing 0.2 μL of a 1000× stock of each test compound in DMSO. Cells were then incubated at 37° C. in 5% CO2 for 8-10 h. To measure activity, wells were then gently pipetted up and down to mix the conditioned medium, and absorbance from the colorimetric product of the secreted alkaline phosphatase was measured at 630 nm. In some assays, cells were stimulated for 16 h with compounds as described above in complete DMEM. Then, 20 μL of the conditioned medium was mixed with 180 μL QUANTI-Blue solution (InvivoGen, rep-qbs) and incubated for 2-4 h at 37° C. Activity was then measured by absorbance as described above.

T1 sequence (Q9HC29 whole entry): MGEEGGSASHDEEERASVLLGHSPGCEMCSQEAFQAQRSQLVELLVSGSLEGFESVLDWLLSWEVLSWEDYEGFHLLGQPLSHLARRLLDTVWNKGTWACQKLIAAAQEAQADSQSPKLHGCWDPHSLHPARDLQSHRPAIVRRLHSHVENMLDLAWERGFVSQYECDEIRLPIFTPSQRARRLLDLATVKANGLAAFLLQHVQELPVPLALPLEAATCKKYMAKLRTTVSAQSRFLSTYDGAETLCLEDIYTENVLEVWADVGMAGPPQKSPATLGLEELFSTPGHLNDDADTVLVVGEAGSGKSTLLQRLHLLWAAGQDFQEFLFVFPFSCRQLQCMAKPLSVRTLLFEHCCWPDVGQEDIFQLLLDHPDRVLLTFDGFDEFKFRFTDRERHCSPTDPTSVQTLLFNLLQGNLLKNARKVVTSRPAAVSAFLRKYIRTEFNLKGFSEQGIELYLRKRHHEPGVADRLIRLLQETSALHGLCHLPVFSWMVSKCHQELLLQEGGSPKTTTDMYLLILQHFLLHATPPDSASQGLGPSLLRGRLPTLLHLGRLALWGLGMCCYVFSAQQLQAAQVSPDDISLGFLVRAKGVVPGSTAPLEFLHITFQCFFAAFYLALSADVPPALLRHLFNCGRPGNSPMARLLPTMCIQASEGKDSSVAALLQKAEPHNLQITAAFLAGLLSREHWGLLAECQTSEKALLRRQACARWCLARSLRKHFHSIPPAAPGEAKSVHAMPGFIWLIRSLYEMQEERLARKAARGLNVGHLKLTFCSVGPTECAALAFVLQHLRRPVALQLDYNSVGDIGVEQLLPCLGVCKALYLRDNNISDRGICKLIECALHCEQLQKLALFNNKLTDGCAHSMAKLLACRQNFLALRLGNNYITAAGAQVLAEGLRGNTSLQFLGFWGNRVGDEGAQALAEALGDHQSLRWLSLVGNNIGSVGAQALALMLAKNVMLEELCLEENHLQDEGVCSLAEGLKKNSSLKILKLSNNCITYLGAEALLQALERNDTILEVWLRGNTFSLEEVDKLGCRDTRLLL

Row | SMILES | EC50 [µM] | other results
1 | CCOC(=O)CC[C@@H](NC(=O)[C@@H](NC(=O)c1c(C)nn(-c2ccccc2)c1C)C(C)C)C(=O)OCC [TT018, Diethyl (3,5-dimethyl-1-phenyl-1H-pyrazole-4-carbonyl)-L-valyl-D-glutamate] | 2.51 | Potency in structure-activity comparison: did not yield compounds with appreciable differences in potency
2 | CCOC(=O)CC[C@@H](NC(=O)[C@@H](NC(=O)c1cnn(-c2ccccc2O)c1C)C(C)C)C(=O)OCC [TT014, Diethyl (1-(2-hydroxyphenyl)-5-methyl-1H-pyrazole-4-carbonyl)-L-valyl-D-glutamate] | 31.6 | 
3 | CCOC(=O)CC[C@@H](NC(=O)[C@@H](NC(=O)CCCc1ccccc1)C(C)C)C(=O)OCC [TT001, Diethyl (4-phenylbutanoyl)-L-valyl-D-glutamate] |  | NOD2 activation, result in words in the pEC50 column: Active
4 | CCOC(=O)CC[C@@H](NC(=O)[C@H](C(C)C)N(C)C(=O)c1cnn(-c2ccc(F)cc2)c1C)C(=O)OCC [TT020, Diethyl N-(1-(4-fluorophenyl)-5-methyl-1H-pyrazole-4-carbonyl)-N-methyl-L-valyl-D-glutamate] |  | Activity after N-methylation on Val: abolished the activity
5 | CCOC(=O)CC[C@@H](NC(=O)[C@@H](NC(=O)c1cn(-c2ccc(C)cc2)nc1C)C(C)C)C(=O)OCC [TT013, Diethyl (3-methyl-1-(p-tolyl)-1H-pyrazole-4-carbonyl)-L-valyl-D-glutamate] | 10 | 
6 | CCOC(=O)CC[C@@H](NC(=O)[C@@H](NC(=O)c1cn(-c2ccc(F)cc2)nc1C)C(C)C)C(=O)OCC [TT011, Diethyl (1-(4-fluorophenyl)-3-methyl-1H-pyrazole-4-carbonyl)-L-valyl-D-glutamate] | 10 | Potency in structure-activity comparison: reduced potency by up to two orders of magnitude
7 | CCOC(=O)CC[C@@H](NC(=O)[C@@H](NC(=O)C(C)Cc1ccc(F)c(F)c1)C(C)C)C(=O)OCC (mixture of isomers) [TT005, Diethyl (3-(3,4-difluorophenyl)-2-methylpropanoyl)-L-valyl-D-glutamate] | 0.631 | 
8 | CCOC(=O)CC[C@@H](NC(=O)[C@@H](NC(=O)c1c(C)nn(-c2ccc(NC(=O)OC(C)(C)C)nc2)c1C)C(C)C)C(=O)OCC [TT027, Diethyl (1-(6-((tert-butoxycarbonyl)amino)pyridin-3-yl)-3,5-dimethyl-1H-pyrazole-4-carbonyl)-L-valyl-D-glutamate] | 0.158 | 
9 | CCOC(=O)CC[C@@H](NC(=O)[C@@H](NC(=O)c1cnn(-c2ccc(F)cc2)c1C(C)C)C(C)C)C(=O)OCC [TT012, Diethyl (1-(4-fluorophenyl)-5-isopropyl-1H-pyrazole-4-carbonyl)-L-valyl-D-glutamate] | 31.6 | Potency in structure-activity comparison: did not compensate the lack of the other substituent
10 | CCOC(=O)CC[C@@H](NC(=O)[C@@H](NC(=O)[C@@H]1C[C@H]1c1ccc(Cl)c(Cl)c1)C(C)C)C(=O)OCC (racemic) [TT004, Diethyl (rac-(1R,2R)-2-(3,4-dichlorophenyl)cyclopropane-1-carbonyl)-L-valyl-D-glutamate] |  | NOD2 activation, result in words in the pEC50 column: Active
11 | CCOC(=O)CC[C@@H](NC(=O)[C@@H](NC(=O)c1cn(-c2ccc(F)cc2)nc1-c1cccc(C)c1)C(C)C)C(=O)OCC [TT009, Diethyl (1-(4-fluorophenyl)-3-(m-tolyl)-1H-pyrazole-4-carbonyl)-L-valyl-D-glutamate] |  | Activation of NOD2-expressing HEK-293T cells, colorimetric assay (10 µM, 16 h (FIG. 1E)): inactive; Potency in structure-activity comparison: did not compensate the lack of the other substituent
12 | CCOC(=O)CC[C@@H](NC(=O)[C@H](C(C)C)N(C)C(=O)c1cn(-c2ccc(F)cc2)nc1C)C(=O)OCC [TT021, Diethyl N-(1-(4-fluorophenyl)-3-methyl-1H-pyrazole-4-carbonyl)-N-methyl-L-valyl-D-glutamate] |  | Activity after N-methylation on Val: abolished the activity
13 | CCOC(=O)CC[C@@H](NC(=O)[C@@H](NC(=O)CNC(=O)/C=C/c1ccccc1)C(C)C)C(=O)OCC [CinGVE, Diethyl cinnamoylglycyl-L-valyl-D-glutamate, reference compound] | 1.26 | 

Second part, led by results:

Row | EC50 [µM] | SMILES | other results
14 | 5.01 | CCOC(=O)CC[C@@H](NC(=O)[C@@H](NC(=O)c1cnn(-c2cccnc2)c1)C(C)C)C(=O)OCC [TT037, diethyl (1-(pyridin-3-yl)-1H-pyrazole-4-carbonyl)-L-valyl-D-glutamate] | 
15 | 1.58 | CCOC(=O)CC[C@@H](NC(=O)[C@@H](NC(=O)c1c(C)nn(-c2ccccn2)c1C)C(C)C)C(=O)OCC [TT032, Diethyl (3,5-dimethyl-1-(pyridin-2-yl)-1H-pyrazole-4-carbonyl)-L-valyl-D-glutamate] | 
16 | 2.51 | CCOC(=O)CC[C@@H](NC(=O)[C@@H](NC(=O)c1c(C)nn(-c2cccc(OC)c2)c1C)C(C)C)C(=O)OCC [TT036, Diethyl (1-(3-methoxyphenyl)-3,5-dimethyl-1H-pyrazole-4-carbonyl)-L-valyl-D-glutamate] | 
17 | 0.398 | CCOC(=O)CC[C@@H](NC(=O)[C@@H](NC(=O)c1c(C)nn(-c2cnc3[nH]ccc3c2)c1C)C(C)C)C(=O)OCC [TT029, Diethyl (3,5-dimethyl-1-(1H-pyrrolo[2,3-b]pyridin-5-yl)-1H-pyrazole-4-carbonyl)-L-valyl-D-glutamate] | 
18 | 1.58 | CCOC(=O)CC[C@@H](NC(=O)[C@@H](NC(=O)c1c(C)nn(-c2ccccc2OC)c1C)C(C)C)C(=O)OCC [TT035, Diethyl (1-(2-methoxyphenyl)-3,5-dimethyl-1H-pyrazole-4-carbonyl)-L-valyl-D-glutamate] | 
19 | 2.51 | CCOC(=O)CC[C@@H](NC(=O)[C@@H](NC(=O)c1c(C)nn(-c2cncnc2)c1C)C(C)C)C(=O)OCC [TT034, Diethyl (3,5-dimethyl-1-(pyrimidin-5-yl)-1H-pyrazole-4-carbonyl)-L-valyl-D-glutamate] | 
20 | 3.16 | CCOC(=O)CC[C@@H](NC(=O)[C@@H](NC(=O)c1c(C)nn(-c2ccncc2)c1C)C(C)C)C(=O)OCC [TT031, Diethyl (3,5-dimethyl-1-(pyridin-4-yl)-1H-pyrazole-4-carbonyl)-L-valyl-D-glutamate] | 
21 | 0.158 | CCOC(=O)CC[C@@H](NC(=O)[C@@H](NC(=O)c1c(C)nn(-c2ccc3cc[nH]c3c2)c1C)C(C)C)C(=O)OCC [TT025, Diethyl (1-(1H-indol-6-yl)-3,5-dimethyl-1H-pyrazole-4-carbonyl)-L-valyl-D-glutamate] | 
22 | 0.251 | CCOC(=O)CC[C@@H](NC(=O)[C@@H](NC(=O)c1c(C)nn(-c2ccc3[nH]ccc3c2)c1C)C(C)C)C(=O)OCC [TT028, Diethyl (1-(1H-indol-5-yl)-3,5-dimethyl-1H-pyrazole-4-carbonyl)-L-valyl-D-glutamate] | 
23 | 1 | CCOC(=O)CC[C@@H](NC(=O)[C@@H](NC(=O)c1c(C)nn(-c2ccc(Cl)cc2)c1C)C(C)C)C(=O)OCC [TT024, Diethyl (1-(4-chlorophenyl)-3,5-dimethyl-1H-pyrazole-4-carbonyl)-L-valyl-D-glutamate] | Potency in structure-activity comparison: did not yield compounds with appreciable differences in potency
24 | 1.26 | CCOC(=O)CC[C@@H](NC(=O)[C@@H](NC(=O)c1c(C)nn(-c2ccc(Cl)c(Cl)c2)c1C)C(C)C)C(=O)OCC [TT022, Diethyl (1-(3,4-dichlorophenyl)-3,5-dimethyl-1H-pyrazole-4-carbonyl)-L-valyl-D-glutamate] | Potency in structure-activity comparison: slight increase
